{"source": "patent EP4302767A1", "about": "“OPHTHALMIC COMPOSITION COMPRISING ERIOCITRIN” (Skeye Pharma GmbH, priority 2022, dated 2024)", "key": {"[1]": {"details": "'it is believed'; basis not stated; cited from earlier work"}, "[2]": {"tested_on": "Human corneal epithelial cells (hCEC)", "test": "Cell scratch (wound healing / migration) assay in vitro", "format": "cell-based", "details": "10 µM, Fig. 2", "description": "To analyze hCEC migration in vitro, cells were cultured in corneal epithelial cell growth medium with supplement mix until confluence of the cells of a 6-well cell culture plate. Following an incubation period of 24 hours in cell culture medium without supplements, 5 linear scratches were performed in each well using a 200 µl pipette tip (Eppendorf AG, Hamburg, Germany). The hCECs were then incubated prospectively under treatment with eriocitrin or DMSO as a control for up to 48 hours. Reference images were acquired at the beginning of the incubation period using the phase contrast mode on an Axio Observer 7 (Carl Zeiss AG, Jena, Germany). Every 24 hours, follow-up images of different scratch sections were acquired. The size of the wound area was analyzed using a semi-automated analysis tool in ImageJ 1.53a (National Institute of Health, Bethesda, MD, USA)."}, "[3]": {"tested_on": "Human corneal epithelial cells (hCEC)", "test": "BrdU cell proliferation ELISA", "format": "cell-based", "description": "(§1) Proliferation of hCEC was determined using a 5-bromo-2'-deoxyuridine (BrdU) ELISA in accordance with the manufacturers' recommendations (Merck KGaA, Darmstadt, Germany). In brief, approximately 7,000 cells were seeded onto a 96-well cell culture plate and incubated for 24h to achieve complete adherence of the cells. After 24 hours of incubation with 100 µl of corneal epithelial cell growth medium without its' supplement mix, hCECs were treated with eriocitrin and/or SCH772984 (Selleckchem, Houston, TX, USA), an inhibitor of ERK1/2 phosphorylation, both dissolved in DMSO. Following another 24 hours of incubation with BrdU labeling solution, cells were fixed and incubated with anti-BrdU antibodies according to the manufacturer's recommendations. BrdU incorporation into the DNA of hCECs was quantified by absorbance measurement at 450 nm."}, "[4]": {"details": "80°C for 30 min, pH 7; cited from earlier work"}, "[5]": {"tested_on": "Human corneal epithelial cells (hCEC)", "test": "Oxidative stress model (H2O2) with BrdU proliferation assay", "format": "cell-based", "details": "24 h, Fig. 3, read-out: cell proliferation", "description": "as §1\nTo determine potential anti-oxidative effects of eriocitrin, hCECs were incubated and treated analogous to the above-mentioned BrdU ELISA with minor modifications. To induce oxidative stress, hydrogen peroxide (H2O2) in a concentration of 100 µM was added to the treatment groups and an additional H2O2-only group was tested. Following another incubation of the hCECs for 24 hours, the BrdU assay was further performed according to the description above."}, "[6]": {"test": "WST-1 cell viability assay", "format": "cell-based, Human", "details": "human, corneal epithelial cells, 0.5 µM, DMSO control = 100 ± 12%, mean ± SD", "description": "(§2) Human corneal epithelial cells (hCEC; SCCE016; Merck Millipore, Burlington, MA, USA) were cultured in corneal epithelial cell growth medium with supplement mix (LGC Standards, Teddington, United Kingdom). Approximately 10,000 hCECs were seeded onto each well of a 96-well cell-culture dishes (NUNC, Langenselbold, Germany). After 24 hours of incubation with 100 µl of corneal epithelial cell growth medium without its' supplement mix (LGC Standards, Teddington, United Kingdom), hCECs were treated with different concentrations of eriocitrin (EC; Selleckchem, Houston, TX, USA) dissolved in dimethyl sulfoxide (DMSO; Carl Roth AG, Karlsruhe, Germany). Control groups were treated with DMSO only. Following another 72 hours of incubation, the cells were incubated with the water-soluble tetrazolium salt (WST-1; Hoffmann-La Roche AG, Basel, Switzerland) solution for 30 minutes. Substrate turnover was measured with an ELISA reader at 450 nm (Spectramax 190; Molecular Devices, Sunnyvale, CA, USA) and a reference at 690 nm."}, "[7]": {"tested_on": "Human corneal epithelial cells (hCEC)", "test": "WST-1 cell viability assay", "format": "cell-based", "details": "any of the concentrations tested, 72 hours, compared to DMSO control; Fig. 1A", "description": "as §2"}, "ERK1/2": {"tested_on": "ERK1/2", "test": "Western blot of ERK1/2 phosphorylation in corneal epithelial cells", "format": "cell-based", "details": "Homo sapiens, Corneal epithelial cell, 1 hour, compared to DMSO-only control, Fig. 4, read-out: pERK1/2 protein expression", "description": "To analyze whether eriocitrin activates the extracellular signal-regulated kinase-1 and -2 (ERK1/2), human corneal epithelial cells were treated with 10 µM eriocitrin for 1 hour. Corneal proteins were isolated in radioimmunoprecipitation assay (RIPA) buffer. Protein concentration was measured with a bicinchoninic acid (BCA) assay according to the manufacturer's instructions (Thermo Fisher Scientific, Waltham, MA, USA). Up to 25 µg of total proteins were subjected to 8% SDS-PAGE. Following gel electrophoresis proteins were transferred onto a polyvinylidine fluoride (PVDF) membrane (Roche Holding, Basel, Switzerland) by semidry blotting. After blocking with 3% low fat milk in PBS-Tween (PBS-T) for one hour, membranes were incubated overnight with a rabbit-anti-pERK1/2 (1:1000; Cell Signaling Technology, Danvers, MA, USA) in PBS-T with 0.3% low fat milk. Alkaliphosphatase-conjugated mouse-anti-rabbit antibodies (1:1000, Jackson Immunoresearch Europe, UK) were used as secondary antibodies. Antibody hybridization was visualized using the CDP-Star substrate (Thermo Fisher) and documented with the Western Blot Reader iBright CL 1000 (Thermo Fisher). As a loading control, AP-conjugated anti-alpha-tubulin antibodies were used (1:1000, Merck). The densitometry of Western blot analyses was performed with the iBright Image software v.1.4.0 software (Thermo Fisher)."}}, "data": [{"smiles": "COc1cc(O)c(CC=C(C)C)c(O)c1C(=O)/C=C/c1ccc(O)cc1", "note": "[xanthohumol, 1-[2,4-Dihydroxy-6-methoxy-3-(3-methyl-but-2-enyl)-phenyl]-3-(4-hydroxyphenyl)-propenon]", "values": [{"measurement": "first pka", "setting": "[1]", "value": "about 7"}]}, {"smiles": "C[C@@H]1O[C@@H](OC[C@H]2O[C@@H](Oc3cc(O)c4c(c3)O[C@H](c3ccc(O)c(O)c3)CC4=O)[C@H](O)[C@@H](O)[C@@H]2O)[C@H](O)[C@H](O)[C@H]1O", "note": "[eriocitrin, (2S)-3',4',5-trihydroxy-7-[α-L-rhamnopyranosyl-(1→6)-β-D-glucopyranosyloxy]flavan-4-one]", "values": [{"measurement": "scratched hCEC area, difference to DMSO-only control", "setting": "[2]; 24 hours of incubation, p > 0.9999", "value": "slight difference"}, {"measurement": "remaining wound area", "setting": "[2]; 48 hours of incubation, control 71.9 ± 7.7%", "value": "64.5 ± 7.8", "unit": "%"}, {"measurement": "proliferation", "setting": "[3]; 10 µM eriocitrin plus 100 nM SCH772984, 24 hours, Fig. 5", "value": "104 ± 9", "unit": "%"}, {"measurement": "proliferation", "setting": "[3]; 10 µM, 24 hours, compared to DMSO treated controls, Fig. 5", "value": "129 ± 11", "unit": "%"}, {"measurement": "activity at 0.5 µM", "setting": "[3]; Homo sapiens, HCEC, 0.5 µM, 24 hours, DMSO control = 100 ± 17%, Fig. 1B", "value": "118 ± 39", "unit": "%"}, {"measurement": "activity at 1 µM", "setting": "[3]; Homo sapiens, HCEC, 1 µM, 24 hours, DMSO control = 100 ± 17%, Fig. 1B", "value": "126 ± 33", "unit": "%"}, {"measurement": "activity at 2.5 µM", "setting": "[3]; Homo sapiens, HCEC, 2.5 µM, 24 hours, DMSO control = 100 ± 17%, Fig. 1B", "value": "127 ± 29", "unit": "%"}, {"measurement": "activity at 5 µM", "setting": "[3]; Homo sapiens, HCEC, 5 µM, 24 hours, DMSO control = 100 ± 17%, Fig. 1B", "value": "143 ± 36", "unit": "%"}, {"measurement": "activity at 10 µM", "setting": "[3]; Homo sapiens, HCEC, 10 µM, 24 hours, DMSO control = 100 ± 17%, Fig. 1B", "value": "162 ± 49", "unit": "%"}, {"measurement": "eriocitrin molecules remain intact", "setting": "[4]", "value": 60, "unit": "%"}, {"measurement": "activity at 5 µM", "setting": "[5]; 5 µM added to 100 µM H2O2, 24 hours, H2O2 control 81 ± 12%", "value": "113 ± 9", "unit": "%"}, {"measurement": "activity at 5 µM", "setting": "[5]; 5 µM, 24 hours, without H2O2, compared to DMSO control", "value": "117 ± 8", "unit": "%"}, {"measurement": "activity at 10 µM", "setting": "[5]; 10 µM added to 100 µM H2O2, 24 hours, H2O2 control 81 ± 12%", "value": "115 ± 18", "unit": "%"}, {"measurement": "activity at 10 µM", "setting": "[5]; 10 µM, 24 hours, without H2O2, compared to DMSO control", "value": "125 ± 18", "unit": "%"}, {"measurement": "viability at 72 h, 0.5 µM", "setting": "[6]", "value": "110 ± 14", "unit": "%"}, {"measurement": "toxic effects on corneal epithelial cell viability", "setting": "[7]", "value": "did not show any toxic effects"}, {"measurement": "fold induction at 10 µM", "setting": "ERK1/2", "value": "1.8 ± 0.9"}]}, {"smiles": "O=C(Nc1ccc2[nH]nc(-c3ccncc3)c2c1)[C@@H]1CCN(CC(=O)N2CCN(c3ccc(-c4ncccn4)cc3)CC2)C1", "note": "[SCH772984, reference compound]", "values": [{"measurement": "effect on eriocitrin-enhanced proliferation of corneal epithelial cells", "setting": "[3]; 100 nM added to 10 µM eriocitrin, 24 hours, Fig. 5", "value": "completely blocked"}]}]}
